Source: publication PMC6952414 (Nature Communications, 2020)
Several values for one entry are separate records, joined by “and”; a condition that tells them apart may be missing. Equal values may be shown once. Read-outs that look alike come from different tables or passages of the source. Positions of bridges follow the written chain, without caps; N, C: chain ends. Non-standard residues stand in square brackets, D forms with d. Chains are numbered I, II in the order given. No end group written: not given here. Ahx = NCCCCCC(=O)O

Tests used:
[1] = test system: MDCK cells; settings: 5 mM for 16 h
[2] = test system: IAV strain PR8
[3] = test system: IAV strain PR8; assay type: cell-based, IAV H1N1 strain A/Puerto Rico/8/1934 (PR8)
[4] = test system: IAV strain PR8; test: microbe, parasite or virus in culture; settings: Influenza A virus, PR8, MDCK, read-out: EC50 (μM), IAV cytopathicity
[5] = test system: IAV strain PR8; design: species or system BALB/c mice; settings: mouse, in vivo
[6] = test system: IAV strain PR8; assay type: cell-based, IAV H1N1 strain A/Puerto Rico/8/1934 (PR8); remark: listed apart in the source
[7] = test system: IAV strain PR8; assay type: cell-based, IAV H1N1 strain A/Puerto Rico/8/1934 (PR8); remark: listed apart in the source
[8] = test system: virus NP mRNA; assay type: cell-based, IAV H1N1 strain A/Puerto Rico/8/1934 (PR8)
[9] = test system: IAV strain PR8; assay type: cell-based, IAV H1N1 strain A/Puerto Rico/8/1934 (PR8); remark: listed apart in the source
[10] = test system: IAV strain PR8; assay type: cell-based, IAV H1N1 strain A/Puerto Rico/8/1934 (PR8); remark: listed apart in the source
[11] = test system: recombinant HA / α2-6sialyllactose-PAA; assay type: binding, IAV H1N1 strain A/Puerto Rico/8/1934 (PR8)
[12] = test system: IAV strain PR8; remark: listed apart in the source
[13] = test system: HA; assay type: cell-based, IAV H1N1 strain A/Puerto Rico/8/1934 (PR8)
[14] = test system: PR8-HA1/HA2; assay type: binding, IAV H1N1 strain A/Puerto Rico/8/1934 (PR8)
[15] = test system: cell surface HA; assay type: cell-based, IAV H1N1 strain A/Puerto Rico/8/1934 (PR8)
[16] = test system: IAV strain PR8; assay type: cell-based, IAV H1N1 strain A/Puerto Rico/8/1934 (PR8); remark: listed apart in the source
[17] = test system: LC3-II; assay type: cell-based, canine
[18] = test system: HA1/HA2; assay type: binding, IAV H1N1 strain A/Puerto Rico/8/1934 (PR8)
[19] = test system: IAV particles (strain PR8); assay type: biochemical, IAV H1N1 strain A/Puerto Rico/8/1934 (PR8)
[20] = test system: IAV strain PR8; assay type: cell-based, IAV H1N1 strain A/Puerto Rico/8/1934 (PR8); remark: listed apart in the source
[21] = biological target: immobilized recombinant HA (Influenza A virus, UniProt P03452); assay type: binding, IAV H1N1 strain A/Puerto Rico/8/1934 (PR8)
Chain of immobilized recombinant HA (P03452 18-565 limits assumed): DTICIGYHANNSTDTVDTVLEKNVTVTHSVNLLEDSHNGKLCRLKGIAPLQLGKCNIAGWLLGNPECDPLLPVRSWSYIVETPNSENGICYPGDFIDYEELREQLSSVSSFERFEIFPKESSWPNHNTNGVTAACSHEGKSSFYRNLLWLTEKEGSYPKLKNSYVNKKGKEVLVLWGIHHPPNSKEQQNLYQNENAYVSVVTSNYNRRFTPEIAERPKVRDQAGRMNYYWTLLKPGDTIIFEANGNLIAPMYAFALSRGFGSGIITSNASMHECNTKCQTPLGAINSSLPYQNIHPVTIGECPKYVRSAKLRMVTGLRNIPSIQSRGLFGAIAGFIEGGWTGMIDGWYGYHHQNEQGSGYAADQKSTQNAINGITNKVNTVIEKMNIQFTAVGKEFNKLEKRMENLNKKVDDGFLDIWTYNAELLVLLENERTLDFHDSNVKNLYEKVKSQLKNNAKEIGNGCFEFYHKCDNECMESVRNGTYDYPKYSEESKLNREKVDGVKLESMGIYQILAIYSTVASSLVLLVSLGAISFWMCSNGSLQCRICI

[22] = test system: HA; assay type: biochemical, IAV H1N1 strain A/Puerto Rico/8/1934 (PR8)
[23] = test system: PR8-HA0; assay type: binding, IAV H1N1 strain A/Puerto Rico/8/1934 (PR8)
[24] = test system: IAV strain PR8; assay type: cell-based, IAV H1N1 strain A/Puerto Rico/8/1934 (PR8); remark: listed apart in the source
[25] = test system: MDCK cells
[26] = test system: IAV strain PR8; assay type: cell-based, IAV H1N1 strain A/Puerto Rico/8/1934 (PR8); remark: listed apart in the source
[27] = test system: recombinant HA derived from H5N1 A/chicken/Yamaguchi/7/2004 strain; assay type: binding, Influenza A virus H5N1
[28] = test system: IAV strain PR8; assay type: cell-based, IAV H1N1 strain A/Puerto Rico/8/1934 (PR8); remark: listed apart in the source

3-MA
cell viability of uninfected MDCK cells (in words) [1]: did not affect the cell viability

CSCC[C@H](N)C(=O)N[C@@H](C)C(=O)N[C@@H](C)C(=O)NCCCCCC(=O)NCCCC[C@H](NC(=O)CCCCCNC(=O)[C@H](C)NC(=O)[C@H](C)NC(=O)[C@@H](N)CCSC)C(=O)NCCCC[C@H](NC(=O)[C@H](CCCCNC(=O)CCCCCNC(=O)[C@H](C)NC(=O)[C@H](C)NC(=O)[C@@H](N)CCSC)NC(=O)CCCCCNC(=O)[C@H](C)NC(=O)[C@H](C)NC(=O)[C@@H](N)CCSC)C(=O)O [MA-tet]
inhibition of IAV cytopathicity (in words) [2]: did not inhibit the cytopathicity

C[C@@H]1COCCN1c1cc(=O)n2c(n1)N(Cc1cncc(Cl)c1)[C@H](C(F)(F)F)CC2 [SAR405]
effect on the dose-dependent anti-viral activity of PVF-tet (in words) [3]: suppressed the dose-dependent anti-viral activity of PVF-tet

CC(=O)N[C@H]1[C@H]([C@H](O)[C@H](O)CO)OC(C(=O)O)=C[C@@H]1N=C(N)N [Zanamivir, zanamivir]
EC50 [4]: 0.2 µM
body weight loss (in words) [5]: attenuated the weight loss
mice rescued from mortality [5]: 100%

CO/C1=C\C(C)=C\[C@@H](C)[C@@H](O)[C@@H](C)C/C(C)=C/C=C/[C@H](OC)[C@@H]([C@@H](C)[C@@H](O)[C@H](C)[C@@]2(O)C[C@@H](O)[C@H](C)[C@@H](C(C)C)O2)OC1=O [bafilomycin A1]
fusion process monitored by fluorescently labeled virus (in words) [6]: efficiently inhibited both events
NP-positive cells (%) [7]: 5.3% and 2.2% and 2.8% and 3.8%
virus entry into target cells, NP-positive cells (in words) [7]: completely inhibited virus entry into cells
NP mRNA synthesis (in words) [8]: efficiently inhibited both events
Relative mRNA expression (fold increase) [8]: 0.134 fold increase and 0.131 fold increase and 0.156 fold increase and 0.244 fold increase and 0.237 fold increase and 0.138 fold increase and 0.155 fold increase
time of administration after initial IAV infection at which cytopathicity is still inhibited [9]: < 5 h

I: MARRPVNHFA[Ahx]KK-NH2 / II: MARRPVNHFA[Ahx]K / III: MARRPVNHFA[Ahx] / IV: MARRPVNHFA[Ahx] (amide I:12-IV:C, I:13-II:C, II:12-III:C) [PVF-tet]
anti-viral activity in ULK1-knockout clones (in words) [10]: significantly suppressed in the clones
fusion process monitored by fluorescently labeled virus (in words) [6]: did not affect the fusion process
inhibition of the interaction between HA and α2,6-sialyllactose polymer (in words) [11]: also efficiently inhibited the binding of HA to α2-6 sialyllactose-polymer
inhibition of IAV cytopathicity in Caco-2 cells (in words) [12]: equally inhibited cytopathicity induced by both low and high MOI infection
amount of newly synthesized HA in infected cells (in words) [13]: accumulated in a time-dependent manner
binding to infectious IAV particles with HA1/HA2 (in words) [14]: did not bind to infectious IAV particles with HA1/HA2
amount of HA on the plasma membrane (in words) [15]: marked reduction of the amount of HA that was present on the plasma membrane
anti-viral activity in PIK3C3-knockout clones (in words) [16]: significantly suppressed in the clones
formation of LC3-II (in words) [17]: further enhanced the formation of LC3-II
effect of proteolytic cleavage of recombinant HA into HA1/HA2 on binding (in words) [18]: reduced the binding of PVF-tet to HA
inhibition of IAV-induced hemagglutination (in words) [19]: did not inhibit IAV-induced hemagglutination
NP-positive cells (%) [7]: 51.6% and 50.5% and 44.6% and 50.0%
virus entry into target cells, NP-positive cells (in words) [7]: did not inhibit virus entry into target cells
fold increase of virus titer over the initial virus titer [20]: about 50 fold
inhibition of IAV propagation (in words) [20]: inhibited IAV propagation to a greater degree than fetuin
Rmax [21]: 1004 RU
binding to HA (in words) [21]: bound to HA with high affinity
formation of highly clustered HA (in words) [22]: induced the formation of highly clustered HA
binding to non-infectious IAV particles with HA0 (in words) [23]: did bind with remarkable efficacy to non-infectious IAV particles with HA0
cell viability [24]: 103 ± 9% and 85 ± 9%
inhibition of cytopathicity when treated from 2 h post-infection for limited periods (in words) [24]: still efficiently inhibited the cytotoxicity
NP mRNA synthesis (in words) [8]: did not affect
effect of FBS on incorporation into cells (in words) [25]: enhanced by the presence of fetal bovine serum (FBS)
incorporation into MDCK cells (in words) [25]: can be incorporated into MDCK cells at 37 °C
Cell viabilitiy(%) [26]: 136.2% and 97.5% and 109.1% and 71.8% and 88.5% and 71.7%
anti-IAV activity in the ABCA3-knockout clone (in words) [26]: retained its anti-IAV activity
binding to recombinant H5N1 HA (in words) [27]: bound
time of administration after initial IAV infection at which cytopathicity is still inhibited [9]: up to 9 h
EC50 ([2]; 24 h): 1400 nM

RRPVNHD [PVD-tet]
incorporation into MDCK cells (in words) [25]: less cell-penetrating
inhibition of IAV cytopathicity (in words) [2]: failed to inhibit IAV cytopathicity

RRRVNHH [RVH-tet]
inhibition of IAV cytopathicity (in words) [2]: efficiently inhibited the cytopathicity in a dose-dependent manner

asialofetuin [reference compound]
binding to infectious IAV particles with HA1/HA2 (in words) [14]: exhibited no binding
binding to non-infectious IAV particles with HA0 (in words) [23]: exhibited no binding

fetuin
effect of proteolytic cleavage of recombinant HA into HA1/HA2 on binding (in words) [18]: also reduced by the cleavage of HA
inhibition of IAV-induced hemagglutination (in words) [19]: efficiently inhibited the activity
Virus propagation (fold increase) [20]: 350.0 fold increase and 466.7 fold increase and 483.3 fold increase
binding to non-infectious IAV particles with HA0 (in words) [23]: exhibited much more binding
inhibition of IAV cytopathicity at low MOI (in words) [28]: had the greatest inhibitory effect
inhibition of IAV cytopathicity (in words) [2]: showed no inhibitory effect at all
